Experimental data from patent publication US20260071252A1, “REVERSIBLE NANOPARTICLE AGGREGATES AND METHODS FOR DETECTING PROTEASES” (The Regents of the University of California, priority 2022, published 2026).
“Also recorded” adds a separate entry of the source. Where no end group is shown, it is not given here.

Tests used:
[1] = Peptide-enabled dissociation of RRK-induced AuNP aggregates; settings: for particle dissociation: RRK-induced AuNP aggregates; for dissociation of aggregated AuNPs in diverse matrixes: 100% human saliva, plasma, urine, and seawater; for concentration that dissociates AuNP aggregates: Gly spacer length
Method: After inducing AuNP aggregates by the RRK peptides, the A1 peptides with different concentrations from 7 to 300 μM were used to dissociate AuNP aggregates. The plasmonic resonance peak of AuNP aggregates blue shifted to 520 nm after particle dissociation. (FIG. 37b). The hydrodynamic diameter of AuNP aggregates (greater than (>) 1 μm) was reduced to 27±0.07 nm, and the surface charge of AuNPs was—13.4±1.03 mV because of surface modification with neutral charged A1 peptides (150 μM) and residual citrates (FIG. 37c). Particle dissociation induced color change from blue to red and a decrease in size as confirmed by time-dependent photographs, multi-laser wavelength nanoparticle tracking analysis (M-NTA), and TEM (FIG. 37d-e and FIG. 45A-C).
To further study the role of each amino acid in the A1 peptide, we synthesized eight peptide sequences (from A2 to A8) for control experiments (FIG. 46A-H). Table 1 includes peptide sequence, net charge, critical dissociation concentrations (CDC), and design rationale. First, we replaced Cys residue with Gly (i.e., A2) to confirm the role of the anchoring group. […] Second, we hypothesized that negatively charged EE residues were required for particle dissociation because they provide electrostatic repulsions for citrate-coated AuNPs.
Briefly, 10 μM of RRK peptide was used to aggregate 100 μL of AuNPs (conc approximately 3.6 nM). The particle aggregation rapidly occurred (less than 10 s), changing color from red to blue. Then the desired dissociation peptides were used to dissociate the AuNP aggregates. It is notable that these exemplary AuNPs are stabilized by citrate. Different surface ligands (for example, BSPP) and different sizes (40 or 60 nm) require different amounts of RRK peptide for particle aggregation.
Briefly, RRK peptides (8-10 μM) was first used to trigger AuNP aggregation in distilled water. The sample was centrifuged at […] for 5 min to remove the supernatant. Then, the pellet was re-dispersed in 100% human saliva, plasma, urine, and seawater. After re-dispersion, the desired amounts of dissociation peptide were used to dissociate AuNPs aggregates in different matrixes. […] The experiment was performed with three replicates, and the microplate reader was used to measure spectral scanning from 300 to 900 nm before and after dissociation. The ratiometric signal (λ520/λ700) was referred as dissociation. The data was blanked to remove background signal.

[2] = Peptide-induced (Arg-Arg) assembly of AuNPs-citrate, TEM/MANTA/UV-Vis
Source text: Formation of AuNP assemblies. In this study, we investigated the possibility of forming convenient and reversible AuNPs assemblies using only elementary 15 nm AuNPs-citrate suspended in water and short peptides without the need for a complex surface modification. Peptides were used because they are relatively bulky and thus their steric prevented the particles from entering a permanent aggregated state. Arginine in particular can strongly interact with citrate anions via electrostatic interactions. A dipeptide containing two repetitions of arginine (Arg-Arg or RR) was thus used to interact with multiple particles at the same time and induce assembly.
Multispectral advanced nanoparticles tracking analysis (MANTA) was then used to confirm the size increase: The initial blue scattering corresponding to a hydrodynamic diameter of 40±25 nm (FIG. 1C) transformed immediately into red scattering corresponding to a hydrodynamic diameter of approximately 467±120 nm (FIG. 1D). Importantly, the count of particles decreased by more than 90%—from 2.5×10^5/mL to 2×10^4/mL, thus confirming that the vast majority of the AuNPs-citrate were aggregated. TEM images at different magnifications are seen in the supporting information (FIG. 10 and FIG. 11).
AuNPs Assembly and Dissociation Assembly. Typically, 1 mL of AuNPs-citrate at OD=1.5 was mixed with 50 μL of Arg-Arg (100 μM) to provoke the AuNPs assembly. The color of the suspensions rapidly changed from red to blue. The assembled AuNPs (Arg-Arg-AuNPs) were stable over time when stored at 4° C. and could be used for dissociation even month after their assembly.
(§1) The optical absorption measurements were collected using a hybrid multi-mode microplate reader (Synergy™ H1 model, BioTek Instruments, Inc.) in a 96-well plate. The dissociation of assembly was characterized by measuring the ratio of the absorbance at 520 nm or 530 nm and 700 nm or 820 nm for 20 nm NPs or 40 nm NPs, respectively.
(§2) The multispectral advanced nanoparticle tracking analysis (MANTA) is a technique that builds images from the particles' light scattering via three lasers of different wavelengths (for example, blue, green, and red); the wavelength of scattering depends on nanoparticle size. Thus, small particles (less than, or <, 100 nm) appear blue while larger particles appear greener or redder. MANTA uses these images to count the nanoparticles and calculate their size based on Brownian motion. MANTA was performed with the VIEWSIZER 3000™ (Horiba Scientific, USA). The temperature was set to 25° C. during the measurement. Automated noise analysis determines the optimal wavelength for representing each nanoparticle. Here, 8-bit composite videos were generated, and 10 videos were used per analysis (300 frames for seconds). A quartz cuvette with minimum volume of 1 mL was used for the measurement and the AuNPs concentrations was set up at 0.04 nM.

[3] = Dissociation of Arg-Arg-AuNPs assemblies with HS-PEGs (UV-Vis percentage of dissociation, MANTA size); settings: for dissociation of Arg-Arg-AuNPs assemblies: anchoring group / non-PEG ligand controls, up to >100 μM
Source text: Dissociation of the AuNPs assemblies. […] HS-PEG6-OCH3 was chosen because its grafting on AuNPs ensure a high colloidal stability of these latter. Indeed, the grafting of thiolated PEGs has been widely reported in the literature via the formation of a strong Au—S bond conferring to the particles a high colloidal stability due to a combination of hydrophilicity and steric hindrance.^30-32 The Au—S bond being stronger than the arginine-citrate, arginine-gold or even citrate-gold interactions, […] was expected to be capable of progressively replacing the arginine/citrate layers at the gold surface, disrupting the electrostatic network, and eventually dispersing the AuNPs (Scheme 1). Briefly, aqueous suspensions Arg-Arg-AuNPs assemblies were exposed to increasing concentrations of HS-PEG6-OCH3, and the dissociation of the assemblies was characterized by TEM, MANTA, FTIR and UV-Vis spectroscopies (FIG. 2).
The presence of a PEG layer around the AuNPs explains the difference in the hydrodynamic diameter versus the initial AuNPs-citrate (48±32 nm vs 40±25 nm). Remarkably, the LSPR band of the dissociated AuNPs was identical to the AuNPs-citrate: The color of the sample returned to its initial bright red color. […] For the remainder of this study, the efficiency of the dissociation will be characterized by the percentage of dissociation (%) as measured by UV-Vis spectroscopy (comparison between the LSPR band after dissociation versus that from AuNPs-citrate). See the experimental section in the supporting information for more details. […] This finding is particularly interesting because the typical grafting density of HS-PEG6-OCH3 on dispersed AuNPs is reported to be between 3.5 and 4 HS-PEG6-OCH3/nm^2.^33 This implies that no excess of HS-PEGs was needed to dissociate the entire assembly-only enough to cover all the gold surface. It is worth noting that the kinetics of the dissociation was almost instantaneous (equilibrium reached within a minute) (FIG. 14). A video of the dissociation of the AuNPs assemblies is available online.
Dissociation. Stock solutions of the different HS-PEGs with concentrations ranging from 10 μM to 1 mM were prepared. Specific volumes of each solution were added to a 96-well plate in order to reach the desired final HS-PEGs concentration and then 100 μL of Arg-Arg-AuNPs were added. For complex matrices experiments, the Arg-Arg-AuNPs were first concentrated 10 times by centrifugation and then dispersed in complex media (sea water, pooled human saliva, plasma, urine, bile or HEK cell lysates) that represented thus 90% of the total volume except for bile, which was only 20%. Quickly after the addition of AuNPs, the dissociation of the assembly was monitored and the ratio of the absorbances at 520 nm and 700 nm was recorded over time. The percentage of dissociation is described as follows:
as §1
as §2, with “MANTA was performed with the VIEWSIZER” left out, “seconds).” for “seconds). A quartz cuvette with minimum volume of 1 mL was used for the measurement and the AuNPs concentrations was set up at 0.04 nM.”

[4] = target: SARS-CoV-2 main protease (Mpro) (Severe acute respiratory syndrome coronavirus 2, UniProt P0DTD1)
[5] = critical dissociation concentration, X (no dissociation)

Ace-KEEKKPPC-Am (Ac-KEEKKPPC-NH2) [Peptide A4]
particle dissociation [1]: no particle dissociations

Arg-Arg
decrease of the count of particles ([2]; MANTA, from 2.5×10^5/mL to 2×10^4/mL after Arg-Arg): more than 90% | Arg-Arg-induced aggregation of AuNPs-citrate in complex media ([2]; biological fluids, high concentrations of Arg-Arg (>200 μM)): could not induce the AuNPs-citrate aggregation in biological fluids | hydrodynamic diameter (MANTA) after addition of di-arginine peptide ([2]; excess (10^4 equiv.), 10 μM Arg-Arg, 10 minutes, initial AuNPs-citrate 40±25 nm): approximately 467±120 nm

NH2-EEKKPPC-Am (H-EEKKPPC-NH2) [Peptide A3]
particle dissociation [1]: no particle dissociations

Ace-EEKKPPG-Am (Ac-EEKKPPG-NH2) [Peptide A2]
particle dissociation [1]: failed to dissociate AuNP aggregates

O=C(O)CCS [MPA, 3-mercaptopropionic acid, reference compound]
dissociation of Arg-Arg-AuNPs assemblies [3]: none could dissociate the aggregates

Arg-Gly-Gly-Gly-Arg (RGGGR-NH2) [reference compound]
affinity for the AuNPs-citrate compared to Arg-Arg (RR) ([2]; FIG. 1F): higher affinity for the particles than RR

Ace-EEKKAAC-Am [Peptide A10]
CDC ([1]; spacer comparison PP, AA, GG): 150 µM

Ace-EEKKGGC-Am (Ac-EEKKGGC-NH2) [Peptide A11]
dissociation of aggregated AuNPs in diverse matrixes [1]: successfully dissociated the aggregated AuNPs in diverse matrixes | concentration that dissociates AuNP aggregates [1]: 16 µM | particle dissociation [1]: highest dissociation capacity compared to other spacers | CDC ([1]; spacer comparison PP, AA, GG): 16 µM

Ace-EEKKGGGGGGC-Am (Ac-EEKKGGGGGGC-NH2) [Peptide A13]
dissociation capacity lower than the A12 peptides ([1]; same peptide concentration (30 μM)): 25%

Ace-KKEEPPC-Am (Ac-KKEEPPC-NH2) [Peptide A6]
particle dissociation [1]: particle dissociation was quenched

Ace-CGGKKEEAVLQ-Am [Peptide A15]
particle dissociation [1]: higher dissociation capacity than the A14 peptide; also recorded: dissociated AuNP aggregates

Ace-EEPPC-Am [Peptide A7]
CDC [1, 5]: >300 µM | decreased to % of the dissociation capacity ([1]; relative to A1 peptide): 30%

O=C(O)c1ccc(S)cc1 [MBA, 4-mercaptobenzoic acid, reference compound]
dissociation of Arg-Arg-AuNPs assemblies [3]: none could dissociate the aggregates

Ace-EEPPKKC-Am (Ac-EEPPKKC-NH2) [Peptide A5]
dissociation capacity lower than A1 peptide [1]: 50% | CDC [1, 5]: >300 µM

O=C(O)CCOCCOCCOCCOCCOCCOCCOCCOCCOCCOCCOCCOCCS [HS-PEG12-COOH, HS—(CH2CH2O)12—CH2CH2COOH]
assemblies dissociated ([3]; from concentrations of 10 μM): 100%

Ace-EEKKGGCAVLQ-Am (Ac-EEKKGGCAVLQ-NH2) [Peptide A17]
particle dissociation [1]: failed to dissociate AuNP aggregates; also recorded: decreased the dissociation capacity

Ace-EEKKGGGGC-Am (Ac-EEKKGGGGC-NH2) [Peptide A12]
dissociation of aggregated AuNPs in diverse matrixes [1]: successfully dissociated the aggregated AuNPs in diverse matrixes | concentration that dissociates AuNP aggregates [1]: 16 µM

SGFR
impact of released fragment on the dissociation process [4]: negligible impact on the dissociation process

Ace-CGGKKEEAVLQSGF-Am [Peptide A19]
peptide concentration causing non-desired particle dissociation [4]: over 50 μM
